Legend:
Assay type in all cases: binding, human
maternal autoantibodies = assay: validation peptide microarray incubated with maternal plasma samples (ASD vs TD mothers); details: for Number (%) Positive In ASD / Number Positive In ASD (n = 46): plasma of mothers of children with ASD, n = 46; for Number Positive In ASD (n = 46): peptide called positive (reactive) per sample; for Number (%) Positive In TD / Number Positive In TD (n = 21): plasma of mothers of typically developing children, n = 21; for binding by autoantibodies, ASD samples compared with TD samples: in words
[1] = tested on: autoantibodies present in a maternal sample; assay: STIP1 peptide ELISA with maternal plasma samples; details: plasma 1:400; for Final (absorbance, average minus blank): 450 nm; for Average (absorbance): 450 nm with 490 nm reference, duplicate
Text: The peptides of Table 2 were synthesized with a linker and biotinylated. In particular, each biotinylated peptide was biotin-SGSS-peptide-DKP with SGSS (SEQ ID NO: 121) as the spacer and a diketopiperazine (DKP) group at the C-terminus of the peptide. Pierce® NeutrAvidin® protein coated microwell plates (Thermo Scientific) were washed with PBST and excess buffer was removed from the wells. The biotinylated peptides were reconstituted in pure solvent (e.g., DMSO or DMF) or a solvent/water mixture. The reconstituted peptide was diluted […] in ultra pure water to a final concentration of 5 μg/ml. 100 μl of the diluted biotinylated peptide was dispensed into the wells and incubated for 1 hour at room temperature or overnight at 4° C. on a slow rocker. Reference wells were left uncoated but filled with buffer. Nonspecific binding sites were blocked by incubation with 200 μl of a 5% Pierce® Superblock™ PBS solution for 2 hours at room temperature. Subsequently, the plates were washed six times with PBST using an automated plate washer.
The following method adapted from Sanchez et al. (Cancer Chemother. Pharmacol., 66: 919-925 (2010)) was used to detect maternal antibodies against one or more of the peptides of the ELISA-based assay described above: Maternal plasma samples were obtained including samples predetermined to be reactive to the full-length antigens of the peptides in the assay. The test samples were diluted in sample diluent (e.g., 2.5% Pierce® Superblock™ in PBST) and 100 μl of each sample was added to the wells of the assay plate. All samples were analyzed in duplicate in both peptide-coated and uncoated wells. The diluted samples were incubated for 1 hour at room temperature. The plates were then washed six times with PBST. The labeled secondary antibody solution (e.g., horseradish peroxidase-conjugated goat anti-human IgG, Invitrogen) was added to the wells and incubated for 30 minutes at room temperature. The plates were again washed eight times with PBST. The plates were then washed with PBS without Tween twice. The BD Opt EIA™ substrate (BD Biosciences Pharmingen, San Diego, Calif.) was added to the wells and incubated at room temperature for 10 minutes. The STOP solution (2N H2SO4) was added and the plate was read at 450 nm using a reference filter at 490 nm.
In particular, four maternal plasma samples were tested for their reactivity to a STIP1 peptide having the amino acid sequence PPPPPPKKETKPEPM (SEQ ID NO:22) using the following peptide ELISA protocol: • 1. Bring all reagents to room temperature. • 2. Peptides were diluted in ultra pure water from peptide stock (1 mg/mL) to a final concentration of 5 μg/mL. • 3. Add 100 μl of each peptide to corresponding wells on 96-well NeutrAvidin coated plate. • 4. Incubate plate for 1 hour at room temperature. • 5. Wash plate six times with PBS with 0.05% Tween. • 6. Add 200 μl of 5% Superblock to each well and incubated for 2 hours at room temperature. • 7. Wash plate six times with PBS with 0.05% Tween. • 8. Dilute maternal plasma samples 1:400 in sample buffer (2.5% Superblock in PBS with 0.05% Tween). • 9. Add 100 μl of diluted plasma samples to wells and incubate for 1 hour at room temperature. • 10. Wash plate six times with PBS with 0.05% Tween. • 11. Dilute Goat Anti-Human antibody 1:2,500 in PBS with 0.05% Tween. • 12. Add 100 μl of diluted Goat Anti-Human antibody to wells and incubate for 30 minutes at room temperature. • 13. Wash plate eight times with PBS with 0.05% Tween and two times with PBS Neat. • 14. Add 100 μl of BD Opt EIA substrate to each well. • 15. Incubate plate in the dark for 10 minutes at room temperature. • 16. Add 50 μl of H2SO4 to each well to stop chemical reaction. • 17. Read plate on reduced setting on spectrophotometer at 450 nm with 490 nm reference.
The samples were run in duplicate and the absorbance values were averaged. […]

[2] = tested on: autoantibodies present in a maternal sample; assay: ELISA with the full-length STIP1 polypeptide; details: Sample No. 1190
[3] = Sample No. 99 (Medium Reactivity)
[4] = Sample No. 1190 (Highly Reactive)
[5] = Sample No. 1887 (Low Reactivity)

VDITSWYDGVREELE [SEQ ID NO: 38]
Number (%) Positive In ASD (maternal autoantibodies): 26% | Number Positive In ASD (n = 46) (maternal autoantibodies): 12 | Number (%) Positive In TD (maternal autoantibodies): 14% | Number Positive In TD (n = 21) (maternal autoantibodies): 3

VPRGLYDGPVCEVSV [SEQ ID NO: 60]
Number (%) Positive In ASD (maternal autoantibodies): 17% | Number Positive In ASD (n = 46) (maternal autoantibodies): 8 | Number (%) Positive In TD (maternal autoantibodies): 5% | Number Positive In TD (n = 21) (maternal autoantibodies): 1

PPPPPPKKETKPEPM [SEQ ID NO: 22]
Final (absorbance, average minus blank) [1, 3]: 0.483 | Average (absorbance) [1, 3]: 1.482 | Final (absorbance, average minus blank) ([1]; Sample No. 142 (Negative)): 0.093 | Average (absorbance) ([1]; Sample No. 142 (Negative)): 1.295 | Final (absorbance, average minus blank) [1, 4]: 2.045 | Average (absorbance) [1, 4]: 2.442 | Final (absorbance, average minus blank) [1, 5]: 0.129 | Average (absorbance) [1, 5]: 2.101

PVAEEEATVPNNKIT [SEQ ID NO: 9]
binding by autoantibodies, ASD samples compared with TD samples (maternal autoantibodies): only bound by autoantibodies when the microarrays were incubated with plasma samples obtained from mothers whose children had a diagnosis of ASD | Number (%) Positive In ASD (maternal autoantibodies): 7% | Number Positive In ASD (n = 46) (maternal autoantibodies): 3 | Number (%) Positive In TD (maternal autoantibodies): 0% | Number Positive In TD (n = 21) (maternal autoantibodies): 0

VVPEPGSSLLTSFEK [SEQ ID NO: 36]
binding by autoantibodies, ASD samples compared with TD samples (maternal autoantibodies): only bound by autoantibodies when the microarrays were incubated with plasma samples obtained from mothers whose children had a diagnosis of ASD | Number (%) Positive In ASD (maternal autoantibodies): 4% | Number Positive In ASD (n = 46) (maternal autoantibodies): 2 | Number (%) Positive In TD (maternal autoantibodies): 0% | Number Positive In TD (n = 21) (maternal autoantibodies): 0

IAPVAEEEATVPNNKIT [SEQ ID NO: 66]
binding by autoantibodies, ASD samples compared with TD samples (maternal autoantibodies): only bound by autoantibodies when the microarrays were incubated with plasma samples obtained from mothers whose children had a diagnosis of ASD | Number (%) Positive In ASD (maternal autoantibodies): 4% | Number Positive In ASD (n = 46) (maternal autoantibodies): 2 | Number (%) Positive In TD (maternal autoantibodies): 0% | Number Positive In TD (n = 21) (maternal autoantibodies): 0

LQTPKIVADKDYSVTAN [SEQ ID NO: 71]
binding by autoantibodies, ASD samples compared with TD samples (maternal autoantibodies): only bound by autoantibodies when the microarrays were incubated with plasma samples obtained from mothers whose children had a diagnosis of ASD | Number (%) Positive In ASD (maternal autoantibodies): 2% | Number Positive In ASD (n = 46) (maternal autoantibodies): 1 | Number (%) Positive In TD (maternal autoantibodies): 0% | Number Positive In TD (n = 21) (maternal autoantibodies): 0

KTISAKTHNSSLEYN [SEQ ID NO: 54]
binding by autoantibodies, ASD samples compared with TD samples (maternal autoantibodies): only bound by autoantibodies when the microarrays were incubated with plasma samples obtained from mothers whose children had a diagnosis of ASD | Number (%) Positive In ASD (maternal autoantibodies): 2% | Number Positive In ASD (n = 46) (maternal autoantibodies): 1 | Number (%) Positive In TD (maternal autoantibodies): 0% | Number Positive In TD (n = 21) (maternal autoantibodies): 0

ETVEFDVVEGEKGAE [SEQ ID NO: 32]
Number (%) Positive In ASD (maternal autoantibodies): 11% | Number Positive In ASD (n = 46) (maternal autoantibodies): 5 | Number (%) Positive In TD (maternal autoantibodies): 5% | Number Positive In TD (n = 21) (maternal autoantibodies): 1

VDVIEDKLKGEMMDL [SEQ ID NO: 3]
Number (%) Positive In ASD (maternal autoantibodies): 15% | Number Positive In ASD (n = 46) (maternal autoantibodies): 7 | Number (%) Positive In TD (maternal autoantibodies): 10% | Number Positive In TD (n = 21) (maternal autoantibodies): 2

HNSSLEYNIFEGMEC [SEQ ID NO: 55]
Number (%) Positive In ASD (maternal autoantibodies): 35% | Number Positive In ASD (n = 46) (maternal autoantibodies): 16 | Number (%) Positive In TD (maternal autoantibodies): 19% | Number Positive In TD (n = 21) (maternal autoantibodies): 4

TPKIVADKDYSVTAN [SEQ ID NO: 11]
binding by autoantibodies, ASD samples compared with TD samples (maternal autoantibodies): only bound by autoantibodies when the microarrays were incubated with plasma samples obtained from mothers whose children had a diagnosis of ASD | Number (%) Positive In ASD (maternal autoantibodies): 2% | Number Positive In ASD (n = 46) (maternal autoantibodies): 1 | Number (%) Positive In TD (maternal autoantibodies): 0% | Number Positive In TD (n = 21) (maternal autoantibodies): 0

DCIIIVVSNPVDILT [SEQ ID NO: 12]
binding by autoantibodies, ASD samples compared with TD samples (maternal autoantibodies): only bound by autoantibodies when the microarrays were incubated with plasma samples obtained from mothers whose children had a diagnosis of ASD | Number (%) Positive In ASD (maternal autoantibodies): 11% | Number Positive In ASD (n = 46) (maternal autoantibodies): 5 | Number (%) Positive In TD (maternal autoantibodies): 0% | Number Positive In TD (n = 21) (maternal autoantibodies): 0

PAAPPAAPALSAADT [SEQ ID NO: 28]
Number (%) Positive In ASD (maternal autoantibodies): 41% | Number Positive In ASD (n = 46) (maternal autoantibodies): 19 | Number (%) Positive In TD (maternal autoantibodies): 29% | Number Positive In TD (n = 21) (maternal autoantibodies): 6

MDLNDTFPEYKETIE (MDLNDTFPEYKETTE) [SEQ ID NO: 27]
Number (%) Positive In ASD (maternal autoantibodies): 17% | Number Positive In ASD (n = 46) (maternal autoantibodies): 8 | Number (%) Positive In TD (maternal autoantibodies): 5% | Number Positive In TD (n = 21) (maternal autoantibodies): 1

full-length STIP1 polypeptide: full-length stress-induced phosphoprotein 1 (STIP1) polypeptide used in a comparison ELISA
absorbance value [2]: ~1.0

VDLGSMDEEEEIATP [SEQ ID NO: 21]
Number (%) Positive In ASD (maternal autoantibodies): 13% | Number Positive In ASD (n = 46) (maternal autoantibodies): 6 | Number (%) Positive In TD (maternal autoantibodies): 5% | Number Positive In TD (n = 21) (maternal autoantibodies): 1

VLLGVDLGSMDEEEE [SEQ ID NO: 20]
Number (%) Positive In ASD (maternal autoantibodies): 30% | Number Positive In ASD (n = 46) (maternal autoantibodies): 14 | Number (%) Positive In TD (maternal autoantibodies): 19% | Number Positive In TD (n = 21) (maternal autoantibodies): 4

MAERKQSGKAAEDEE [SEQ ID NO: 45]
Number (%) Positive In ASD (maternal autoantibodies): 22% | Number Positive In ASD (n = 46) (maternal autoantibodies): 10 | Number (%) Positive In TD (maternal autoantibodies): 5% | Number Positive In TD (n = 21) (maternal autoantibodies): 1

Reference: patent US11098082B2, “Antigenic peptides and uses thereof for diagnosing and treating autism” (The Regents of the University of California, priority 2015, dated 2021)
